Measured values taken from patent US20200038418A1, “METHODS OF TREATING AUTISM SPECTRUM DISORDER USING AMINOSTEROL COMPOSITIONS” (Enterin, Inc., priority 2018, published 2020).
“And” between values parts separate entries of the source, which are not always exact repeats. Equal values may be shown once.

Tests used:
[1] = system: patients with PD and constipation; assay: Stage 2 bowel function, stool related indices; format: in vivo, human; conditions: Stage 2, fixed dose, n = 34
Protocol: Following successful screening, all subjects underwent a 14-day run-in period where the degree of constipation was assessed through a validated daily log (Zinsmeister et al., 2013) establishing baseline CSBMs/week. Subjects with an average of <3 CSBMs/week proceeded to dosing.
In Stage 2, 34 patients were evaluated.
The primary efficacy outcome variable was whether or not a subject was a “success” or “failure.” This is an endpoint based on subject diary entries for the “fixed dose” period prior to the endpoint assessment defined as average complete stool frequency increase by 1 or more over baseline, or 3 or more complete spontaneous stools/week. The subject was deemed a “success” if s/he met one or more of the criteria listed above, otherwise the subject was deemed a “failure.” The primary analysis was based on all subjects with a baseline assessment and an assessment at the end of the “fixed-dose” period and was a comparison of the proportion of successes with 0.10 (the null hypothesis corresponding to no treatment effect).

[2] = system: patients with PD and constipation; assay: Circadian rhythm of wrist skin temperature; format: in vivo, human
Protocol: (6) I-Button Temperature Assessment. The I-Button is a small, rugged self-sufficient system that measures temperature and records the results in a protected memory section. The Thermochron I-Button DS1921H (Maxim Integrated, Dallas, Tex.) was used for skin temperature measurement. I-Buttons were programmed to sample every 10 mins., and attached to a double-sided cotton sport wrist band using Velcro, with the sensor face of the I-Button placed over the inside of the wrist, on the radial artery of the dominant hand. Subjects removed and replaced the data logger when necessary (i.e., to have a bath or shower). The value of skin temperature assessment in sleep research is that the endogenous skin warming resulting from increased skin blood flow is functionally linked to sleep propensity. From the collected data, the mesor, amplitude, acrophase (time of peak temperature), Rayleight test (an index of interdaily stability), mean waveforms are calculated);
Assessments were made at baseline and at the end of the fixed dose and washout periods. Circadian system status was evaluated by continuously monitoring wrist skin temperature (Thermochron iButton DS1921H; Maxim, Dallas) following published procedures (Sarabia et al. 2008).
Circadian rhythm of skin temperature was evaluable in 12 patients (i.e., those who had recordings that extended from baseline through washout). Circadian system functionality was evaluated by continuously monitoring wrist skin temperature using a temperature sensor (Thermochron iButton DS1921H; Maxim, Dallas, Tex.) (Sarabia et al. 2008). A nonparametric analysis was performed for each participant to characterize DST as previously described (Sarabia et al. 2008; Ortiz-Tudela et al. 2010).
Briefly, this analysis includes the following parameters: (i) the inter-daily stability (the constancy of 24-hour rhythmic pattern over days, IS); (ii) intra-daily variability (rhythm fragmentation, IV); (iii) average of 10-minute intervals for the 10 hours with the minimum temperature (L10); (iv) average of 10-minute intervals for the 5 hours with the maximum temperature (M5) and the relative amplitude (RA), which was determined by the difference between M5 and L10, divided by the sum of both. Finally, the Circadian Function Index (CFI) was calculated by integrating IS, IV, and RA. Consequently, CFI is a global measure that oscillates between 0 for the absence of circadian rhythmicity and 1 for a robust circadian rhythm (Ortiz-Tudela et al., 2010).

αS = αS (Homo sapiens, UniProt P37840); conditions: in vitro; cited from earlier work
[3] = fixed dose vs baseline, 12 patients

With `CC(C)[C@@H](CC[C@@H](C)[C@H]1CC[C@H]2[C@@H]3[C@H](O)C[C@H]4C[C@@H](NCCCNCCCCN)CC[C@]4(C)[C@H]3CC[C@]12C)OS(=O)(=O)O` (single isomer, unassigned) [squalamine (ENT-01), squalamine] as the molecule, how does the “CSBM, weekly average (mean, SD)” value [1] read?
Its value is 3.8 CSBM/week and 3.8 (2.40) CSBM/week.

What about the “PAC-SYM (mean, SD)” value [1] of the same molecule?
Its value is 1.1 (0.49).

And the “Suppository use / rescue medication, weekly average (mean, SD)” value [1]?
The value was 0.3 /week.

What about the “Consistency, Bristol stool scale 1-7 (mean, SD)” value ([1]; listed as aminosterol) of the same molecule?
The value was 4.1.

And the “Ease of passage, Ease of evacuation scale (mean, SD)” value ([1]; listed as aminosterol)?
Its value is 3.7.

What about the “circadian function index (CFI)” value [2, 3] of the same molecule?
Its value is “increasing”.

And the “relative amplitude (RA)” value [2, 3]?
Its value is “increasing”.

What about the “rhythm fragmentation (intra-daily variability, IV)” value [2, 3] of the same molecule?
Its value is “reducing”.

And the “rhythm stability (inter-daily stability, IS)” value [2, 3]?
The value was “increasing”.

What about the “impact on the circadian rhythm of skin temperature” value ([2]; oral administration, 12 patients with evaluable data) of the same molecule?
Its value is “significant positive impact”.

And the “circadian function index (CFI)” value ([2]; wash-out period, 12 patients)?
The value was “improvement persisted”.

And the “rhythm stability (IS)” value ([2]; wash-out period, 12 patients)?
The value was “improvement persisted”.

And the “formation of aggregates of αS” value (αS)?
The value was “inhibit the formation of aggregates of αS”.
